Biological target: T1, USP25 (USP25-His6, Boston Biochem E-546) (Homo sapiens, UniProt Q9UHP3)
T1 construct: His6; purchased Boston Biochem E-546
T1 sequence (Q9UHP3 1-1055): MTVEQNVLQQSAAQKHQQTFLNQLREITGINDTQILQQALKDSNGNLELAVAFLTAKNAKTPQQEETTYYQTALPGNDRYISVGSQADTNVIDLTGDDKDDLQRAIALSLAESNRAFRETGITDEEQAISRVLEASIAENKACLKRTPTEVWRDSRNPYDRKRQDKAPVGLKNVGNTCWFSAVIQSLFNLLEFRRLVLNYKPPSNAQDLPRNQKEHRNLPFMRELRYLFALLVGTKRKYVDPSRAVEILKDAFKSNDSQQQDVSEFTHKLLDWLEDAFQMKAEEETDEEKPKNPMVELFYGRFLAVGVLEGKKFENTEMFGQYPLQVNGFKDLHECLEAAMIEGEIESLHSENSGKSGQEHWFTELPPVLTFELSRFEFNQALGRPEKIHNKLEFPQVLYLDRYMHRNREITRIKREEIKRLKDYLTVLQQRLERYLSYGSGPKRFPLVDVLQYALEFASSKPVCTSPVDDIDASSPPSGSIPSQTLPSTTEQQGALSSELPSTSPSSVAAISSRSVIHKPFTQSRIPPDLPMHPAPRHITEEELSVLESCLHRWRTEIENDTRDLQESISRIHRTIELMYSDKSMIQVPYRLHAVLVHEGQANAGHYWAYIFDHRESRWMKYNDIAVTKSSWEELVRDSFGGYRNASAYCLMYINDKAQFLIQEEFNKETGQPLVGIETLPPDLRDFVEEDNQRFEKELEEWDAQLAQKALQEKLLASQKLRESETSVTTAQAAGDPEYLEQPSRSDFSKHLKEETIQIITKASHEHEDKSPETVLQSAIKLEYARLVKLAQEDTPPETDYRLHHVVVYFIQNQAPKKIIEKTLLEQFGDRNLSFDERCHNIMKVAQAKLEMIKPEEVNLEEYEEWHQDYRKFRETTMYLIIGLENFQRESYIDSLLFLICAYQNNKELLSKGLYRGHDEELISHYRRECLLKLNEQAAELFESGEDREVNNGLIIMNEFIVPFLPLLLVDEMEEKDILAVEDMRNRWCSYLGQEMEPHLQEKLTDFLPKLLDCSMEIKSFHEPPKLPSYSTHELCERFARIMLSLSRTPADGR
Assay: Ubiquitin-Rhodamine 110 Assay for USP25 Activity, Example A-2
Assay type: biochemical
Settings: Ubiquitin-Rhodamine 110 assay, Example A-2; read-out: USP25 A-2 IC50 range
Method in brief: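 Steps: compound dilutions (top 25 μM, 3-fold, 10 points) were preincubated 30 min with 75 pM USP25-His6; 25 nM Ub-Rh110 substrate was added under initial-velocity conditions; after 45 min at room temperature, 10 mM citric acid stopped the reaction before fluorescence reading.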

## COC[C@H]1CN(c2ccc3c(c2)OC[C@H](NC(=O)c2sc4nc(C)cc(C)c4c2N)C3)C[C@H]1N [Example 276, 3-amino-N-[(3R)-7-[(3S,4S)-3-amino-4-(methoxymethyl)pyrrolidin-1-yl]-3,4-dihydro-2H-1-benzopyran-3-yl]-4,6-dimethylthieno[2,3-b]pyridine-2-carboxamide]
  IC50: 50 to 200 nM

## COC[C@@H]1CN(c2ccc3c(n2)CC[C@H](NC(=O)c2sc4nc(C)ccc4c2N)C3)C[C@H]1N [Example 328, 3-amino-N-[(6S)-2-[(3S,4R)-3-amino-4-(methoxymethyl)pyrrolidin-1-yl]-5,6,7,8-tetrahydroquinolin-6-yl]-6-methylthieno[2,3-b]pyridine-2-carboxamide]
  IC50: > 2000 nM

## CO[C@@H]1CCN(c2ccc3c(c2)OC[C@H](NC(=O)c2sc4nc(C)cc(C)c4c2N)C3)C[C@H]1N [Example 318, 3-amino-N-[(3R)-7-[(3R,4R)-3-amino-4-methoxypiperidin-1-yl]-3,4-dihydro-2H-1-benzopyran-3-yl]-4,6-dimethylthieno[2,3-b]pyridine-2-carboxamide]
  IC50: 200 to 2000 nM

## Cc1ccc2c(N)c(C(=O)N[C@H]3COc4cc(N5C[C@@H]6CCN[C@@H]6C5)ccc4C3)sc2n1 [Example 304, N-[(3R)-7-[(3aS,6aS)-octahydropyrrolo[3,4-b]pyrrol-5-yl]-3,4-dihydro-2H-1-benzopyran-3-yl]-3-amino-6-methylthieno[2,3-b]pyridine-2-carboxamide]
  IC50: 200 to 2000 nM

## COC[C@@H]1CN(c2ccc3c(n2)CC[C@H](NC(=O)c2sc4nc(C)cc(C)c4c2N)C3)C[C@@H]1N [Example 296, 3-amino-N-[(6S)-2-[(3R,4R)-3-amino-4-(methoxymethyl)pyrrolidin-1-yl]-5,6,7,8-tetrahydroquinolin-6-yl]-4,6-dimethylthieno[2,3-b]pyridine-2-carboxamide-]
  IC50: > 2000 nM

## CO[C@H]1CN(c2ccc3c(n2)CC[C@H](NC(=O)c2sc4nc(C)cnc4c2N)C3)C[C@@H]1NC(C)=O [Example 266, 7-amino-N-[(6S)-2-[(3S,4S)-3-acetamido-4-methoxypyrrolidin-1-yl]-5,6,7,8-tetrahydroquinolin-6-yl]-3-methylthieno[2,3-b]pyrazine-6-carboxamide]
  IC50: > 2000 nM

## Cc1ccc2c(N)c(C(=O)N[C@H]3CCc4nc(N5C[C@H](N)[C@H](OC(C)C)C5)ccc4C3)sc2n1 [Example 321, 3-amino-N-[(6S)-2-[(3S,4R)-3-amino-4-(propan-2-yloxy)pyrrolidin-1-yl]-5,6,7,8-tetrahydroquinolin-6-yl]-6-methylthieno[2,3-b]pyridine-2-carboxamide]
  IC50: > 2000 nM

## COC[C@@]1(C)CN(c2ccc3c(n2)CC[C@H](NC(=O)c2sc4nc(C)ccc4c2N)C3)C[C@@H]1N [Example 341, 3-amino-N-[(6S)-2-[(3S,4R)-4-amino-3-(methoxymethyl)-3-methylpyrrolidin-1-yl]-5,6,7,8-tetrahydroquinolin-6-yl]-6-methylthieno[2,3-b]pyridine-2-carboxamide]
  IC50: 200 to 2000 nM

## CO[C@@H]1CCN(c2ccc3c(n2)CC[C@H](NC(=O)c2sc4nc(C)ccc4c2N)C3)C[C@H]1N (single isomer, unassigned) [Example 316]
  IC50: > 2000 nM

## Cc1ccc2c(N)c(C(=O)N[C@H]3COc4cc(N5C[C@H](N)[C@]6(CCO6)C5)ccc4C3)sc2n1 [Example 340, 3-amino-N-[(3R)-7-[(4S,8S)-8-amino-1-oxa-6-azaspiro[3.4]octan-6-yl]-3,4-dihydro-2H-1-benzopyran-3-yl]-6-methylthieno[2,3-b]pyridine-2-carboxamide]
  IC50: 200 to 2000 nM

## CCO[C@H]1CN(c2ccc3c(c2)CC[C@H](NC(=O)c2sc4nc(C)ccc4c2N)C3)C[C@H]1N [Example 268, 3-amino-N-[(2S)-6-[(3R,4S)-3-amino-4-ethoxypyrrolidin-1-yl]-1,2,3,4-tetrahydronaphthalen-2-yl]-6-methylthieno[2,3-b]pyridine-2-carboxamide]
  IC50: > 2000 nM

## COC[C@]1(C)CN(c2ccc3c(n2)CC[C@H](NC(=O)c2sc4nc(C)ccc4c2N)C3)C[C@@H]1N [Example 342, 3-amino-N-[(6S)-2-[(3R,4R)-4-amino-3-(methoxymethyl)-3-methylpyrrolidin-1-yl]-5,6,7,8-tetrahydroquinolin-6-yl]-6-methylthieno[2,3-b]pyridine-2-carboxamide]
  IC50: 200 to 2000 nM

## Cc1ccc2c(N)c(C(=O)N[C@H]3CCc4nc(N5C[C@@H](N)[C@@H](OC(C)C)C5)ccc4C3)sc2n1 [Example 322, 3-amino-N-[(6S)-2-[(3R,4S)-3-amino-4-(propan-2-yloxy)pyrrolidin-1-yl]-5,6,7,8-tetrahydroquinolin-6-yl]-6-methylthieno[2,3-b]pyridine-2-carboxamide]
  IC50: > 2000 nM

## Cc1ccc2c(N)c(C(=O)N[C@H]3COc4cc(N5CC6(C5)OCC[C@@H]6N)ccc4C3)sc2n1 [Example 338, 3-amino-N-[(3R)-7-[(8S)-8-amino-5-oxa-2-azaspiro[3.4]octan-2-yl]-3,4-dihydro-2H-1-benzopyran-3-yl]-6-methylthieno[2,3-b]pyridine-2-carboxamide]
  IC50: 200 to 2000 nM

## COC[C@H]1CN(c2ccc3c(n2)CC[C@H](NC(=O)c2sc4nc(C)cc(C)c4c2N)C3)C[C@H]1N [Example 297, 3-amino-N-[(6S)-2-[(3S,4S)-3-amino-4-(methoxymethyl)pyrrolidin-1-yl]-5,6,7,8-tetrahydroquinolin-6-yl]-4,6-dimethylthieno[2,3-b]pyridine-2-carboxamide]
  IC50: 200 to 2000 nM

## Cc1cnc2c(N)c(C(=O)N[C@H]3CCc4cc(N5C[C@H](OC(C)C)[C@@H](N)C5)ccc4C3)sc2n1 [Example 319, 7-amino-N-[(2S)-6-[(3S,4S)-3-amino-4-(propan-2-yloxy)pyrrolidin-1-yl]-1,2,3,4-tetrahydronaphthalen-2-yl]-3-methylthieno[2,3-b]pyrazine-6-carboxamide]
  IC50: > 2000 nM

## CO[C@]1(C)CN(c2ccc3c(c2)OC[C@H](NC(=O)c2sc4nc(C)ccc4c2N)C3)C[C@H]1N [Example 282, 3-amino-N-[(3R)-7-[(3R,4R)-4-amino-3-methoxy-3-methylpyrrolidin-1-yl]-3,4-dihydro-2H-1-benzopyran-3-yl]-6-methylthieno[2,3-b]pyridine-2-carboxamide]
  IC50: 200 to 2000 nM

## CO[C@H]1CN(c2ccc3c(c2)OC[C@H](NC(=O)c2sc4nc(C)ccc4c2N)C3)[C@@H](C)[C@@H]1N [Example 333, 3-amino-N-[(3R)-7-[(2S,3S,4S)-3-amino-4-methoxy-2-methylpyrrolidin-1-yl]-3,4-dihydro-2H-1-benzopyran-3-yl]-6-methylthieno[2,3-b]pyridine-2-carboxamide]
  IC50: 50 to 200 nM

## COC[C@@H]1CN(c2cc(F)c3c(c2F)OC[C@H](NC(=O)c2sc4nc(C)cc(C)c4c2N)C3)C[C@@H]1N [Example 277, 3-amino-N-[(3R)-7-[(3R,4R)-3-amino-4-(methoxymethyl)pyrrolidin-1-yl]-5,8-difluoro-3,4-dihydro-2H-1-benzopyran-3-yl]-4,6-dimethylthieno[2,3-b]pyridine-2-carboxamide]
  IC50: 200 to 2000 nM

## CO[C@@]1(C)CN(c2ccc3c(n2)CC[C@H](NC(=O)c2sc4nc(C)cnc4c2N)C3)C[C@@H]1N [Example 279, 7-amino-N-[(6S)-2-[(3S,4S)-4-amino-3-methoxy-3-methylpyrrolidin-1-yl]-5,6,7,8-tetrahydroquinolin-6-yl]-3-methylthieno[2,3-b]pyrazine-6-carboxamide]
  IC50: > 2000 nM

## COC[C@@H]1CN(c2ccc3c(c2)OC[C@H](NC(=O)c2sc4nc(C)cc(C)c4c2N)C3)C[C@@H]1N [Example 275, 3-amino-N-[(3R)-7-[(3R,4R)-3-amino-4-(methoxymethyl)pyrrolidin-1-yl]-3,4-dihydro-2H-1-benzopyran-3-yl]-4,6-dimethylthieno[2,3-b]pyridine-2-carboxamide]
  IC50: 200 to 2000 nM

## CO[C@@H]1CN(c2ccc3c(c2)OC[C@H](NC(=O)c2sc4nc(C)ccc4c2N)C3)[C@H](C)[C@H]1N [Example 335, 3-amino-N-[(3R)-7-[(2R,3R,4R)-3-amino-4-methoxy-2-methylpyrrolidin-1-yl]-3,4-dihydro-2H-1-benzopyran-3-yl]-6-methylthieno[2,3-b]pyridine-2-carboxamide]
  IC50: 200 to 2000 nM
